Measured values reported in ChEMBL document CHEMBL1151044, “5,7-Diphenyl-3-ureidohexahydroazepin-2-ones as Cholecystokinin-B receptor ligands” (Bioorg Med Chem Lett, 1994).

Biological target: T1, Cholecystokinin receptor type A (Cavia porcellus, UniProt Q63931)
T1 sequence (Q63931 whole entry): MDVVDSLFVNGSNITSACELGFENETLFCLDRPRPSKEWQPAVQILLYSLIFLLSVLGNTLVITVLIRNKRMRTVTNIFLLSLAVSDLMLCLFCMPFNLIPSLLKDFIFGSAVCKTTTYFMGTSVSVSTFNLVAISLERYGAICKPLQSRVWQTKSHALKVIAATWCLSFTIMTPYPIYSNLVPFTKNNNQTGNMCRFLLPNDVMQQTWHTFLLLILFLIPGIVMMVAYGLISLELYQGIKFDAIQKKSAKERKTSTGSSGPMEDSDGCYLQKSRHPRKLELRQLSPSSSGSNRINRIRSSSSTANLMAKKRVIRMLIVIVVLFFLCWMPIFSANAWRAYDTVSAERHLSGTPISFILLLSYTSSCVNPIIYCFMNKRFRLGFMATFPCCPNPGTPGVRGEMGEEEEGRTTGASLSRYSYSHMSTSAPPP
Experiment: Inhibitory activity against cholecystokinin-A (CCK-A) receptor in pancreas of guinea pig.

| Compound | IC50 |
| --- | --- |
| Cc1cccc(NC(=O)N[C@@H]2C[C@H](c3ccccc3C)C[C@H](c3ccccc3)N(CC(=O)Nc3ccc(Cl)cc3)C2=O)c1 | > 10 nM |
| Cc1cccc(NC(=O)N[C@@H]2C[C@H](c3ccccc3C)C[C@H](c3ccccc3)N(CC(=O)Nc3ccccc3C)C2=O)c1 | 1.1 nM |
| Cc1ccc(NC(=O)CN2C(=O)[C@H](NC(=O)Nc3cccc(C)c3)C[C@H](c3ccccc3C)C[C@@H]2c2ccccc2)cc1 | > 10 nM |
| Cc1cccc(NC(=O)N[C@@H]2C[C@H](c3ccccc3C)C[C@H](c3ccccc3)N(CC(=O)NC(C)C)C2=O)c1 | 560 nM |
| Cc1ccccc1[C@@H]1C[C@H](c2ccccc2)N(CC(=O)NC(C)(C)C)C(=O)[C@H](NC(=O)Nc2cccc(C(F)(F)F)c2)C1 | 2500 nM |
| Cc1ccccc1[C@@H]1C[C@H](c2ccccc2)N(CC(=O)NC(C)(C)C)C(=O)[C@H](NC(=O)Nc2cccc([N+](=O)[O-])c2)C1 | > 10 nM |
| Cc1cccc(NC(=O)N[C@@H]2C[C@H](c3ccccc3C)C[C@H](c3ccccc3)N(CC(=O)Nc3ccccc3Cl)C2=O)c1 | 1.1 nM |
| Cc1cccc(NC(=O)N[C@@H]2C[C@H](c3ccccc3C)C[C@H](c3ccccc3)N(CC(=O)NC(C(C)(C)C)C(C)(C)C)C2=O)c1 | > 10 nM |
| CCc1cccc(NC(=O)N[C@@H]2C[C@H](c3ccccc3C)C[C@H](c3ccccc3)N(CC(=O)NC3(C)CCCCC3)C2=O)c1 | > 10 nM |
| COc1ccc(NC(=O)N[C@@H]2C[C@H](c3ccccc3C)C[C@H](c3ccccc3)N(CC(=O)NC(C)(C)C)C2=O)cc1 | 2.2 nM |
| Cc1cccc(NC(=O)N[C@@H]2C[C@H](c3ccccc3C)C[C@H](c3ccccc3)N(CC(=O)NC3(C)CCCCC3)C2=O)c1 | 4.4 nM |
| Cc1cccc(NC(=O)N[C@@H]2C[C@H](c3ccccc3C)C[C@H](c3ccccc3)N(CC(=O)Nc3cccc(Cl)c3)C2=O)c1 | > 10 nM |
| CCc1ccccc1[C@@H]1C[C@H](c2ccccc2)N(CC(=O)NC(C)(C)C)C(=O)[C@H](NC(=O)Nc2cccc(C)c2)C1 | 810 nM |
| COc1ccccc1[C@@H]1C[C@H](c2ccccc2)N(CC(=O)NC(C)(C)C)C(=O)[C@H](NC(=O)Nc2cccc(C)c2)C1 | 750 nM |
| Cc1ccccc1[C@@H]1C[C@H](c2ccccc2)N(CC(=O)NC(C)(C)C)C(=O)[C@H](NC(=O)Nc2ccc(Cl)cc2)C1 | > 10 nM |
| Cc1cccc(NC(=O)N[C@@H]2C[C@H](c3ccccc3C)C[C@H](c3ccccc3)N(CC(=O)NC(C)(C)C)C2=O)c1 (stereo in doubt; 10i) | 580 nM |
| Cc1cccc(NC(=O)N[C@@H]2C[C@H](c3ccccc3C)C[C@H](c3ccccc3)N(CC(=O)NC(C)(C)C)C2=O)c1 (stereo in doubt; (+)-10i) | 610 nM |

Next, values leading:

| IC50 | Compound |
| --- | --- |
| 1.6 nM | Cc1cccc(NC(=O)N[C@@H]2C[C@H](c3ccccc3)C[C@H](c3cccc(C)c3)N(CC(=O)NC(C)(C)C)C2=O)c1 |
| 1.3 nM | Cc1cccc(NC(=O)N[C@@H]2C[C@H](c3cccc(C)c3)C[C@H](c3ccccc3)N(CC(=O)NC(C)(C)C)C2=O)c1 |
| 1.1 nM | Cc1ccc([C@@H]2C[C@H](c3ccccc3)N(CC(=O)NC(C)(C)C)C(=O)[C@H](NC(=O)Nc3cccc(C)c3)C2)cc1 |
| 10 nM | Cc1cccc(NC(=O)N[C@H]2C[C@H](c3ccccc3)C[C@H](c3ccccc3)N(CC(=O)NC(C)(C)C)C2=O)c1 |
| 1 nM | Cc1cccc(NC(=O)N[C@@H]2C[C@H](c3ccccc3)C[C@H](c3cccc(F)c3)N(CC(=O)NC(C)(C)C)C2=O)c1 |
| 1.8 nM | Cc1ccccc1[C@@H]1C[C@H](c2ccccc2)N(CC(=O)NC(C)(C)C)C(=O)[C@H](NC(=O)Nc2cccc(F)c2)C1 |
| 823 nM | Cc1cccc(NC(=O)N[C@@H]2C[C@H](c3ccccc3)C[C@H](c3ccccc3)N(CC(=O)NC(C)(C)C)C2=O)c1 |
| 2.8 nM | Cc1cccc(NC(=O)N[C@@H]2C[C@H](c3ccccc3)C[C@H](c3ccc(F)cc3)N(CC(=O)NC(C)(C)C)C2=O)c1 |
| 700 nM | Cc1cccc(NC(=O)N[C@@H]2C[C@H](c3ccc(F)cc3)C[C@H](c3ccccc3)N(CC(=O)NC(C)(C)C)C2=O)c1 |
| 970 nM | Cc1ccc([C@H]2C[C@@H](c3ccccc3)C[C@@H](NC(=O)Nc3cccc(C)c3)C(=O)N2CC(=O)NC(C)(C)C)cc1 |
| 930 nM | Cc1cccc(NC(=O)N[C@@H]2C[C@H](c3ccccc3C)C[C@H](c3ccccc3)N(CC(=O)NC(C)(C)C)C2=O)c1 (stereo in doubt; (-)-10i) |
